# Measured values: PMC11968394, “The effect of deuterated PLK1 inhibitor on its safety and efficacy in vivo” (Frontiers in Oncology, 2025)
# Values joined by “and” are separate entries in the source; they are usually repeats but may differ in a detail not shown here. Identical values can stand only once. Like-named read-outs stand apart in the source and are kept apart here.
# Tests used:
# [1] = system: PSN1; test: Cell viability (CellTiter-Glo, 72 h), PSN1; type: cell-based, Human; settings: PSN1, 72 hours; for IC50: Homo sapiens; for Bottom: dose-response curve bottom; for Top: dose-response curve top
# Description: Human pancreatic cancer cell lines (PSN1, PANC-1, Panc 04.03, MIA PaCa-2, BxPC-3, and Capan-1) were cultured in their respective culture media. PSN1 cell lines were maintained in RPMI 1640 + 10%FBS. MIA PaCa-2 cells were cultured in DMEM+10%FBS+5% horse serum. Panc 04.03 cells were grown in RPMI 1640 + 15%FBS+10μg/mL Insulin. PANC-1 cells were maintained in DMEM+10%FBS. BxPC-3 cells were cultured in RPMI 1640 + 10%FBS. Capan-1 cells were grown in IMDM+20%FBS. All cells were incubated at 37°C in a humidified atmosphere containing 5% CO2.
# For assays, cells in the logarithmic growth phase were harvested, seeded to different concentrations at 2,000-6,000 cells/well in 96-well plates. Following overnight incubation, test compounds were added at various concentrations and incubated for 72 hours. Cell viability was assessed by the ATP concentration using the CellTiter-Glo reagent (Promega, Madison, WI 53711 USA), and luminescence values were recorded by a Multilabel Reader (PerkinElmer, Waltham, MA, USA).
# [2] = biological target: CLK4 (Homo sapiens, UniProt Q9HAZ1); test: Kinase assay CLK4; type: biochemical
# CLK4, sequence (Q9HAZ1 whole entry, species assumed): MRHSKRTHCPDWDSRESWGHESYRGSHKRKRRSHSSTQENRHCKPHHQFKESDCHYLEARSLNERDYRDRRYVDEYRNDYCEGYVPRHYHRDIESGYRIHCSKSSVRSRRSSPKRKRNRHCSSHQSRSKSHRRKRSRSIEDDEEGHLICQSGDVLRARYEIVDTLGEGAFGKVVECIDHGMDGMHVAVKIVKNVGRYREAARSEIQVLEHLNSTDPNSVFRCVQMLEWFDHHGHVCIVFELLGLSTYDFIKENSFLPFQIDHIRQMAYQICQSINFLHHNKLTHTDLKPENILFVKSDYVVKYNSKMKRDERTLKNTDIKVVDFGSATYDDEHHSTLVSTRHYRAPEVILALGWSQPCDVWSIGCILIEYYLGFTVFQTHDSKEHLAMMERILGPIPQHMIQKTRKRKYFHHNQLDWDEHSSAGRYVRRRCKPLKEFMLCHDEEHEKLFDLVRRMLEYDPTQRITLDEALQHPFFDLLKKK
# Description: Serial dilutions in DMSO were prepared. PLK1 was serially diluted 5-fold from 10 μM, yielding concentrations from 10000 nM to 0.00512 nM. Other targets were serially diluted 3-fold from 10 μM, yielding concentrations from 10000 nM to 0.5 nM. We have used two kinase assays: HTRF assay and ADG-Glo assay.
# For HTRF Assay, 2× ATP/substrate solution and 2× kinase solution were prepared in kinase reaction buffer. Using an Echo 655, 50 nL of each diluted compound was transferred to a 384-well detection plate. The plate was centrifuged at 1000 rpm for 1 minute. 2.5 μL of 2× kinase solution was added to each well. The plate was incubated at 25°C for 10 minutes. 2.5 μL of 2× ATP/substrate solution was added to each well. The plate was centrifuged at 1000 rpm for 1 minute. The plate was incubated at 25°C for 40 minutes. 2× XL665 and antibody detection reagent were prepared in detection buffer. 5 μL of the prepared kinase detection reagent was added to each well. The plate was centrifuged at 1000 rpm for 1 minute. The plate was incubated at 25°C for 1 hour. Fluorescence signals at 620 nm (Cryptate) and 665 nm (XL665) were measured using a multifunction plate reader.
# For ADP-Glo Assay, 2× ATP/substrate solution and 2× kinase solution were prepared in kinase reaction buffer. […] Luminescence signals were measured using a multifunction plate reader.
# [3] = Caco-2 permeability assay; type: in vitro ADME; settings: for Permeability classification: Caco-2, by comparing Propranolol, Digoxin, Prazosin; for recovery at 2 h, 5 μM / Papp A→B at 2 h, 5 μM / Papp B→A at 2 h, 5 μM: human; for Papp A→B at 2 h, 5 μM / Papp B→A at 2 h, 5 μM: Caco-2, 5 μM
# Description: Caco-2 cells were cultured in 10% FBS DMEM for 14-21 days before assays. […] HBSS was added to the opposite chamber. After 2 hours incubation at 37°C, samples were analyzed by LC-MS/MS. Fluorescein leakage was tested by adding 100 μM fluorescein to the upper chamber and measuring fluorescence after 30 minutes.
# [4] = system: p-TCTP, a direct substrate of PLK1; test: Pharmacodynamics: phospho-Ser46 TCTP in PSN-1 xenograft tumors (Western blot); type: in vivo, M-NSG mice; settings: 2 hours after single oral dose (60, 30, 15 mg/kg)
# Description: For in vivo PK/PD studies, a PSN1 tumor model was established in female M-NSG (NOD.Cg-Prkdc^scidIl2rg^em1Smoc ) mice, which are severely immunodeficient mice lacking the interleukin 2 receptor gamma chain on a NOD.Cg-Prkdc^scid background, at Shanghai Model Organisms (Shanghai, China). Briefly, 5 × 10^6 PSN1 cells were inoculated subcutaneously into each M-NSG mouse. Once the tumors reached approximately 500 mm³, compounds were administered orally at various dosages. For PK studies, blood samples were collected at 0, 0.25, 0.5, 1, 2, 6, and 24 hours post-dose. The sera from blood were then obtained and stored at -70°C. For PD studies, tumors were harvested 2 hours after dosing and stored at -70°C.The serum and tumor samples were then transported to PRECEDO (Hefei, Anhui, China) for further PK/PD studies.
# For PD study, tumor tissues (~30 mg) were homogenized in 350 µL Lysis Buffer. After centrifugation, protein concentration in supernatants was determined by BCA assay. Samples were prepared for SDS-PAGE and run on 10% gels. Proteins were transferred to PVDF membranes, blocked, and incubated with anti-Phospho-TCTP (Ser46) Antibody (Cell Signaling Technology, Danvers, MA, USA) (1:1,000) overnight at 4°C. After washing, membranes were incubated with HRP-anti-Rabbit IgG (Cell Signaling Technology, Danvers, MA, USA) (1:3,000) for 1 hour, then treated with ECL reagents for imaging.
# [5] = system: HCT 116 CDX model; test: HCT 116 CDX model; type: in vivo, BALB/c nude mouse; settings: for Tumor growth: BALB/c nude mice; for Mice died: BALB/c nude, 8 mice/group
# Description: These studies were performed at Yikon Medical (Beijing, China). Cancer cell line HCT 116 or BxPC-3 were cultured in 10% FBS RPMI-1640 medium plus penicillin, streptomycin, and glutamine at 37°C and 5% CO2 until reaching confluency. Cells were then prepared for inoculation. 5×10⁷ cells/mL cells in 100 µL were inoculated subcutaneously into the right flank of each female BALB/c nude mouse for HCT 116 cell line or female NOD SCID mouse for BxPC-3 cell line. […] […] Mice were dosed at least 10 days and were monitored for 30 days.
# TGI was calculated as follows.
# [6] = system: Sprague-Dawley rats; test: Sprague-Dawley rat repeated administration toxicity study; settings: for Death / survival after 9-day dosing: Sprague-Dawley rats, oral 15 mg/kg once a day, n=3; for Rats survived at day 14: female, Sprague-Dawley, po, 14 days
# Description: Rat toxicity was studied at JOINN Laboratories (Suzhou, Jiangsu, China). […] […] […] Using 2 mL sterile syringes and gavage tubes, animals were dosed based on their most recent body weight, with volumes rounded to one decimal place. Test compounds were stirred continuously for at least 15 minutes before and during administration. The rats were dosed once a day for 14 days.
# [7] = Caco-2, Caco-2, A-B, read-out: Recovery A-B%
# [8] = Caco-2, Caco-2, B-A, read-out: Recovery B-A%
smiles,measurement,setting,value
CN1CCN(c2ccc(OC(F)(F)F)c(Nc3ncc4c(n3)-c3c(c(C(N)=O)nn3CCO)CC4)c2)CC1 [NMS-P937],IC50,[1],48.9 nM
same,Bottom,[1],2.3
same,Top,[1],85.9
same,IC50,[2],278 nM
same,Permeability classification,[3],medium permeability
same,"recovery at 2 h, 5 μM",[3]; [7],71.6%
same,"recovery at 2 h, 5 μM",[3]; [8],93.3%
same,"Papp A→B at 2 h, 5 μM",[3],6.1 ×10⁻⁶ cm/s
same,"Papp B→A at 2 h, 5 μM",[3],34.2 ×10⁻⁶ cm/s
same,p-TCTP signal in tumors,[4],reduced p-TCTP signal
same,Body weight,[5]; 60 mg/kg,significant loss of body weight
same,Tumor growth,[5],inhibited the growth of tumors in a dose-dependent manner
same,Mice died,"[5]; 30 mg/kg, 30 mg/kg",one mouse died and 1/8
same,Mice died,"[5]; 60 mg/kg, 60 mg/kg",three mice died and 3/8
same,Death / survival after 9-day dosing,[6]; 15 mg/kg,1 out of 3 rats treated with NMS-P937 died and Death of 1/3 rat
same,Rats survived at day 14,"[6]; rat, in vivo, 15 mg/kg",2/3
[2H]C1([2H])N(C)C([2H])([2H])C([2H])([2H])N(c2ccc(OC(F)(F)F)c(Nc3ncc4c(n3)-c3c(c(C(N)=O)nn3CCO)CC4)c2)C1([2H])[2H] [PR00012],IC50,[1],60.7 nM
same,Bottom,[1],13.7
same,Top,[1],93.7
same,IC50,[2],231 nM
same,Permeability classification,[3],medium permeability
same,"recovery at 2 h, 5 μM",[3]; [7],79.7%
same,"recovery at 2 h, 5 μM",[3]; [8],89.7%
same,"Papp A→B at 2 h, 5 μM",[3],5.2 ×10⁻⁶ cm/s
same,"Papp B→A at 2 h, 5 μM",[3],34.7 ×10⁻⁶ cm/s
same,p-TCTP signal in tumors,[4],reduced p-TCTP signal
same,Tumor growth,[5],inhibited the growth of tumors in a dose-dependent manner
same,Mice died,[5]; 30 mg/kg,No mice died
same,Mice died,"[5]; 60 mg/kg, 60 mg/kg",one mouse died and 1/8
same,Death / survival after 9-day dosing,[6],all three rats treated with PR00012 survived
same,Rats survived at day 14,"[6]; rat, in vivo, 15 mg/kg",3/3
same,Tolerability,"[6]; rat, in vivo, 10 mg/kg",the rats were still tolerable
